According to US20260250290A1 (BRISTOL-MYERS SQUIBB COMPANY, priority 2023, published 2026):
Structures can show the parent of a compound that is named as a salt.

Target: T1, full length SGK1 (Homo sapiens, UniProt O00141)
T1 construct: 125 μM full length SGK1 (Life Technologies Part #PR7358A); purchased Life Technologies PR7358A
T1 sequence (O00141 1-431): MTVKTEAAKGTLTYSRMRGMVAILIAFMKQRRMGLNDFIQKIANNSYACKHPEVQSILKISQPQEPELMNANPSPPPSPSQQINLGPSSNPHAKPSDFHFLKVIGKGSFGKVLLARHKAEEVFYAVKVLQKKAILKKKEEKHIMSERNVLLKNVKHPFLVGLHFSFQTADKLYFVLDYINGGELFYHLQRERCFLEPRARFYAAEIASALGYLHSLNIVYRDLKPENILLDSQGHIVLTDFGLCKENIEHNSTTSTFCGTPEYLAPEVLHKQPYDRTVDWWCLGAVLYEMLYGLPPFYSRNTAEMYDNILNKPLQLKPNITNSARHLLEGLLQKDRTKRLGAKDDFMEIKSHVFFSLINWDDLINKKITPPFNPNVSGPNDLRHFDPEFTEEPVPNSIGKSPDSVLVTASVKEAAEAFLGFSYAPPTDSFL
Assay: SGK1 inhibition Assay A (Caliper LabChip electrophoretic separation of fluorescent peptide substrate and phosphorylated product)
Format: biochemical
Settings: Assay A; 20 μM ATP, 40 min incubation; read-out: SGK1 IC50

IC50 [nM]	Structure (SMILES)
214	Nc1ncnn2c(C3=CCN(CC(=O)O)C3)cc(N3CCC[C@@H](NC(=O)c4ccc(Cl)s4)C3)c12 [Example 912, (R)-2-(3-(4-amino-5-(3-(5-chlorothiophene-2-carboxamido)piperidin-1-yl)pyrrolo[2,1-f][1,2,4]triazin-7-yl)-2,5-dihydro-1H-pyrrol-1-yl)acetic acid]
58	Nc1ncnn2c(-c3cnccn3)cc(N3CCC[C@@H](NC(=O)c4ccc(Cl)s4)C3)c12 [Example 535, (R)-N-(1-(4-amino-7-(pyrazin-2-yl)pyrrolo[2,1-f][1,2,4]triazin-5-yl)piperidin-3-yl)-5-chlorothiophene-2-carboxamide]
5	COC(=O)N1CC=C(c2cc(N3CCC[C@@H](NC(=O)c4sc(Cl)cc4OC4CNC4)C3)c3c(N)ncnn23)C1 [Example 568, Methyl (R)-3-(4-amino-5-(3-(3-(azetidin-3-yloxy)-5-chlorothiophene-2-carboxamido)piperidin-1-yl)pyrrolo[2,1-f][1,2,4]triazin-7-yl)-2,5-dihydro-1H-pyrrole-1-carboxylate]
29	CC(C)(C)OC(=O)N1CC=C(c2ccc(C(=O)N[C@@H]3CCCN(c4cc(-c5ccnc(C(F)F)c5)n5ncnc(N)c45)C3)s2)C1 [Example 546, tert-butyl (R)-3-(5-((1-(4-amino-7-(2-(difluoromethyl)pyridin-4-yl)pyrrolo[2,1-f][1,2,4]triazin-5-yl)piperidin-3-yl)carbamoyl)thiophen-2-yl)-2,5-dihydro-1H-pyrrole-1-carboxylate]
9	Nc1ncnn2c(-c3ccc(=O)n(CC(F)F)c3)cc(N3CCC[C@@H](NC(=O)c4cc5ccccc5[nH]4)C3)c12 [Example 503, (R)-N-(1-(4-amino-7-(1-(2,2-difluoroethyl)-6-oxo-1,6-dihydropyridin-3-yl)pyrrolo[2,1-f][1,2,4]triazin-5-yl)piperidin-3-yl)-1H-indole-2-carboxamide]
517	Nc1ncnn2c(-c3cn(C4CCNC4)nn3)cc(N3CCC[C@@H](NC(=O)c4ccc(Cl)s4)C3)c12 (stereo partly drawn) [Example 866, N-((3R)-1-(4-amino-7-(1-(pyrrolidin-3-yl)-1H-1,2,3-triazol-4-yl)pyrrolo[2,1-f][1,2,4]triazin-5-yl)piperidin-3-yl)-5-chlorothiophene-2-carboxamide]
10	CC(=O)N1CC=C(c2cc(N3CCC[C@@H](NC(=O)c4ccn(C(F)F)n4)C3)c3c(N)ncnn23)C1 [Example 737]
11	CN(C)CCOc1c(C(=O)N[C@@H]2CCCN(c3cc(-c4ccc(C#N)nc4)n4ncnc(N)c34)C2)sc2ccncc12 [Example 666, (R)—N-(1-(4-amino-7-(6-cyanopyridin-3-yl)pyrrolo[2,1-f][1,2,4]triazin-5-yl)piperidin-3-yl)-3-(2-(dimethylamino)ethoxy)thieno[3,2-c]pyridine-2-carboxamide]

Continued, compound first:

Structure (SMILES)	IC50 [nM]
COc1ccc(C)cc1C(=O)N[C@@H]1CCCN(c2cc(-c3ccc(S(C)(=O)=O)cc3)n3ncnc(N)c23)C1 [Example 57, (R)-N-(1-(4-amino-7-(4-(methylsulfonyl)phenyl)pyrrolo[2,1-f][1,2,4]triazin-5-yl)piperidin-3-yl)-2-methoxy-5-methylbenzamide, TFA]	112
Nc1ncnn2c(-c3ccnc(F)c3)cc(N3CCC[C@@H](NC(=O)c4csc5c4CCCC5)C3)c12 [Example 160, (R)-N-(1-(4-amino-7-(2-fluoropyridin-4-yl)pyrrolo[2,1-f][1,2,4]triazin-5-yl)piperidin-3-yl)-4,5,6,7-tetrahydrobenzo[b] thiophene-3-carboxamide, TFA]	20
CS(=O)(=O)c1ccc(-c2cc(N3CCCC(NC(=O)c4ccccn4)C3)c3c(N)ncnn23)cc1 (centres unmarked) [Example 2, N-(1-(4-amino-7-(4-(methylsulfonyl)phenyl)pyrrolo[2,1-f][1,2,4]triazin-5-yl)piperidin-3-yl)picolinamide, TFA]	81
NC(=O)c1ccc(-c2cc(N3CCC[C@@H](NC(=O)c4ccc(C(F)F)s4)C3)c3c(N)ncnn23)cc1F [Example 497, (R)-N-(1-(4-amino-7-(4-carbamoyl-3-fluorophenyl)pyrrolo[2,1-f][1,2,4]triazin-5-yl)piperidin-3-yl)-5-(difluoromethyl)thiophene-2-carboxamide]	1
NCCOc1cc(Cl)sc1C(=O)N[C@@H]1CCCN(c2cc(-c3cncnc3)n3ncnc(N)c23)C1 [Example 327, (R)—N-(1-(4-amino-7-(pyrimidin-5-yl)pyrrolo[2,1-f][1,2,4]triazin-5-yl)piperidin-3-yl)-3-(2-aminoethoxy)-5-chlorothiophene-2-carboxamide]	9
CC(=O)N1CC=C(c2cc(N3CCC[C@@H](NC(=O)c4sc(C(F)F)cc4OC4CCN(C)CC4)C3)c3c(N)ncnn23)C1 [Example 438, (R)—N-(1-(7-(1-acetyl-2,5-dihydro-1H-pyrrol-3-yl)-4-aminopyrrolo[2,1-f][1,2,4]triazin-5-yl)piperidin-3-yl)-5-(difluoromethyl)-3-((1-methylpiperidin-4-yl)oxy)thiophene-2-carboxamide]	6
CN(C)CCOc1cc(Cl)sc1C(=O)N[C@@H]1CCCN(c2cc(-c3ccc(=O)n(CC(F)F)c3)n3ncnc(N)c23)C1 [Example 281, (R)-N-(1-(4-amino-7-(1-(2,2-difluoroethyl)-6-oxo-1,6-dihydropyridin-3-yl)pyrrolo[2,1-f][1,2,4]triazin-5-yl)piperidin-3-yl)-5-chloro-3-(2-(dimethylamino)ethoxy) thiophene-2-carboxamide]	4
CC(=O)N1CC=C(c2cc(N3CCC[C@@H](NC(=O)c4sc(Cl)cc4OCC4CCCN4)C3)c3c(N)ncnn23)C1 (single isomer, unassigned) [Example 391E]	4
Cc1nc(OC2CCN(C)CC2)c(C(=O)N[C@@H]2CCCN(c3cc(-c4ccc(C#N)nc4)n4ncnc(N)c34)C2)s1 [Example 362, (R)-N-(1-(4-amino-7-(6-cyanopyridin-3-yl)pyrrolo[2,1-f][1,2,4]triazin-5-yl)piperidin-3-yl)-2-methyl-4-((1-methylpiperidin-4-yl)oxy)thiazole-5-carboxamide]	19
CC(=O)N1CC=C(c2cc(N3CCC[C@@H](NC(=O)c4ccc(N(C)C)cc4)C3)c3c(N)ncnn23)C1 [Example 445]	5
NC(=O)c1ccc(-c2cc(N3CCC[C@@H](NC(=O)c4sc(C(F)F)cc4OC4CCNCC4)C3)c3c(N)ncnn23)cc1F [Example 349, (R)-N-(1-(4-amino-7-(4-carbamoyl-3-fluorophenyl)pyrrolo[2,1-f][1,2,4]triazin-5-yl)piperidin-3-yl)-5-(difluoromethyl)-3-(piperidin-4-yloxy)thiophene-2-carboxamide]	2
CC(=O)N1CC=C(c2cc(N3CCC[C@@H](NC(=O)c4[nH]c5ccccc5c4OCCN(C)C)C3)c3c(N)ncnn23)C1 [Example 364, (R)—N-(1-(7-(1-acetyl-2,5-dihydro-1H-pyrrol-3-yl)-4-aminopyrrolo[2,1-f][1,2,4]triazin-5-yl)piperidin-3-yl)-3-(2-(dimethylamino)ethoxy)-1H-indole-2-carboxamide]	12
Nc1ncnn2c(-c3ccc(Cl)nc3)cc(N3CCC[C@@H](NC(=O)c4ccc(Cl)s4)C3)c12 [Example 236]	19
CN1CC=C(c2cc(C(F)F)sc2C(=O)N[C@@H]2CCCN(c3cc(-c4ccc(C(N)=O)c(F)c4)n4ncnc(N)c34)C2)CC1 [Example 323, (R)—N-(1-(4-amino-7-(4-carbamoyl-3-fluorophenyl)pyrrolo[2,1-f][1,2,4]triazin-5-yl)piperidin-3-yl)-5-(difluoromethyl)-3-(1-yl)-5-(difluoromethyl)-3-(1-methyl-1,2,3,6-tetrahydropyridin-4-yl)thiophene-2-carboxamide]	19
CC(=O)N1CC=C(c2cc(N3CCC[C@@H](NC(=O)c4sc(C5CC5)cc4OCCN(C)C)C3)c3c(N)ncnn23)C1 [Example 370, (R)—N-(1-(7-(1-acetyl-2,5-dihydro-1H-pyrrol-3-yl)-4-aminopyrrolo[2,1-f][1,2,4]triazin-5-yl)piperidin-3-yl)-5-cyclopropyl-3-(2-(dimethylamino)ethoxy)thiophene-2-carboxamide]	18
COC(=O)N1CC=C(c2cc(N3CCC[C@@H](NC(=O)c4sc(C(F)F)cc4OCCN)C3)c3c(N)ncnn23)C1 [Example 324, methyl (R)-3-(4-amino-5-(3-(3-(2-aminoethoxy)-5-(difluoromethyl)thiophene-2-carboxamido)piperidin-1-yl)pyrrolo[2,1-f][1,2,4]triazin-7-yl)-2,5-dihydro-1H-pyrrole-1-carboxylate]	4
CC(=O)N1CC=C(c2cc(N3CCC[C@@H](NC(=O)c4cccc(C#N)c4)C3)c3c(N)ncnn23)C1 [Example 495, (R)-N-(1-(7-(1-acetyl-2,5-dihydro-1H-pyrrol-3-yl)-4-aminopyrrolo[2,1-f][1,2,4]triazin-5-yl)piperidin-3-yl)-3-cyanobenzamide]	87
CS(=O)(=O)c1ccc(-c2cc(N3CCC[C@@H](NC(=O)c4cnn(C(F)F)c4)C3)c3c(N)ncnn23)cc1 [Example 75, (R)-N-(1-(4-amino-7-(4-(methylsulfonyl)phenyl)pyrrolo[2,1-f][1,2,4]triazin-5-yl)piperidin-3-yl)-1-(difluoromethyl)-1H-pyrazole-4-carboxamide, TFA]	44
